Counter-ions that a name gives are not always drawn.
Columns and labels:
HPAC cells = experiment: In vitro cell proliferation assay in HPAC cell line; format: cell-based; conditions: for inhibition at 3 µM / inhibition at 10 µM: Homo sapiens; for inhibition at 3 µM / % Inhibition of Cell Proliferation HPAC TC1: TC1: Test Concentration of 3 uM; for inhibition at 10 µM: TC2: Test Concentration of 10 uM; for % Inhibition of Cell Proliferation HPAC TC1: 3 µM
Description: (§1) Test 1: In Vitro Cell Proliferation Assay in HPAC and AGS Cell Lines
(§2) Growth inhibition assays was carried out using 10% FBS supplemented media. Cells are to be seeded at a concentration of 2000-3,000 cells/well in a 96-well plate. Test compounds at a concentration range from 0.1 to 30 uM will be added after 24 hours. Growth will be assessed using the MTT or CCK-8 kit for measuring reduction at 0 h (prior to the addition of the test compound) and 72 to 96 hours after the addition of test compound. Absorbance read on a BIO-RAD iMark Microplate or any equivalent micloplate reader at a wavelength of 450 nm to 600 nm. Data will be analyzed and percent inhibition due to the test compound compared to the control is calculated accordingly.

AGS cells = experiment: In vitro cell proliferation assay in AGS cell line; format: cell-based; conditions: Homo sapiens; for inhibition at 3 µM: TC1: Test Concentration of 3 uM; for inhibition at 10 µM: TC2: Test Concentration of 10 uM
Description: as §1, §2

human KRAS G12D protein = molecular target: T1, human KRAS G12D protein (Homo sapiens, UniProt P01116, G12D); experiment: HTRF-based nucleotide exchange assay detecting GTP binding to K-Ras; format: biochemical; conditions: human KRAS G12D (amino acid 2-169), SOS1 mediated exchange
T1 construct: A human KRAS G12D protein (corresponding to amino acid 2-169)
Description: Test 3: Nucleotide Exchange Assay HTRF-based nucleotide exchange assay detecting GTP binding to K-Ras A human KRAS G12D protein (corresponding to amino acid 2-169) was mixed with a a-GST Tb antibody (1.5× solution) and 10 uL of the solution was added to the reaction wells). Compounds (each 10 concentrations or any other concentration of choice at 3-fold or fold of choice for serial dilutions with a starting concentration of […] or or 100 μM or 50 uM) were then delivered to the reaction wells using acoustic dispenser (Echo, Labcyte) and incubated with the Kras/aGST-Tb antibody for 1-hour at room temperature. […] HTRF based SOS1 mediated exchange of GDP to GTP was measured on a microplate reader […] (BMG Labtech) at an excitation wavelength of 337 nm and emission wavelengths of 665 and 620 nm. No-SOS1 reaction or highest control compound concentration was used as blank and % inhibition was calculated and/or IC50 was determined using Sigmoidal dose response (variable slope) equation.

T1 sequence (P01116 2-169 isoform P01116-2 G12D): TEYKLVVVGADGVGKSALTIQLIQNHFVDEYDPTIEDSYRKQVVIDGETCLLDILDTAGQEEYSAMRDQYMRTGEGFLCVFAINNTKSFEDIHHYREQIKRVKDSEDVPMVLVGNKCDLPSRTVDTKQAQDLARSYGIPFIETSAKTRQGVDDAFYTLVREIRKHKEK

Row | SMILES | inhibition at 3 µM (HPAC cells) | inhibition at 10 µM (HPAC cells) | inhibition at 3 µM (AGS cells) | inhibition at 10 µM (AGS cells) | other results
1 | CN1CCC[C@H]1COc1nc(N2[C@@H]3CC[C@H]2CNC3)c2c(c1C#N)CN(c1cc(O)cc3cccc(Br)c13)CC2 [Ex 15, 1-((1R,5S)-3,8-diazabicyclo[3.2.1]octan-8-yl)-6-(8-bromo-3-hydroxynaphthalen-1-yl)-3-(((S)-1-methylpyrrolidin-2-yl)methoxy)-5,6,7,8-tetrahydro-2,6-naphthyridine-4-carbonitrile Hydrochloride] | ≤ 25% | 75 to 100% | – | – | –
2 | C#Cc1cccc2cc(O)cc(N3CCc4c(N5[C@@H]6CC[C@H]5CNC6)nc(OCC56CCCN5CCC6)c(C#N)c4C3)c12 [Ex 14, 1-((1R,5S)-3,8-diazabicyclo[3.2.1]octan-8-yl)-6-(8-ethynyl-3-hydroxynaphthalen-1-yl)-3-((tetrahydro-1H-pyrrolizin-7a(5H)-yl)methoxy)-5,6,7,8-tetrahydro-2,6-naphthyridine-4-carbonitrile Hydrochloride] | ≤ 25% | 50 to 75% | – | – | –
3 | CC(C)[C@@H](N)C(=O)N1CCN(c2nc(OC[C@@H]3CCCN3C)c(C#N)c3c2CCN(Cc2ccccc2)C3)CC1 [Ex 21, 1-(4-(D-valyl)piperazin-1-yl)-6-benzyl-3-(((S)-1-methylpyrrolidin-2-yl)methoxy)-5,6,7,8-tetrahydro-2,6-naphthyridine-4-carbonitrile Hydrochloride] | ≤ 25% | ≤ 25% | – | – | –
4 | C#Cc1cccc2cccc(N3CCc4c(N5[C@@H]6CC[C@H]5CNC6)nc(OCC56CCCN5CCC6)c(C#N)c4C3)c12 [Ex 8, 1-((1R,5S)-3,8-diazabicyclo[3.2.1]octan-8-yl)-6-(8-ethynylnaphthalen-1-yl)-3-((tetrahydro-1H-pyrrolizin-7a(5H)-yl)methoxy)-5,6,7,8-tetrahydro-2,6-naphthyridine-4-carbonitrile TFA Salt] | – | 50 to 75% | – | – | % Inhibition of Cell Proliferation HPAC TC1 (HPAC cells; TFA Salt): A (A = ≤25%)
5 | CN1CCC[C@H]1COc1nc(N2[C@@H]3CC[C@H]2CNC3)c2c(c1C#N)CN(c1cc(O)cc3ccccc13)CC2 [Ex 5, 1-((1R,5S)-3,8-diazabicyclo[3.2.1]octan-8-yl)-6-(3-hydroxynaphthalen-1-yl)-3-(((S)-1-methylpyrrolidin-2-yl)methoxy)-5,6,7,8-tetrahydro-2,6-naphthyridine-4-carbonitrile Hydrochloride] | – | – | 25 to 50% | 75 to 100% | –
6 | N#Cc1c(OCC23CCCN2CCC3)nc(N2[C@@H]3CC[C@H]2CNC3)c2c1CN(c1cc(O)cc3cccc(Br)c13)CC2 [Ex 9, 1-((1R,5S)-3,8-diazabicyclo[3.2.1]octan-8-yl)-6-(8-bromo-3-hydroxynaphthalen-1-yl)-3-((tetrahydro-1H-pyrrolizin-7a(5H)-yl)methoxy)-5,6,7,8-tetrahydro-2,6-naphthyridine-4-carbonitrile Hydrochloride] | ≤ 25% | 75 to 100% | – | – | –
7 | CN1CCC[C@H]1COc1nc(N2[C@@H]3CC[C@H]2CN(C(=O)OC(C)(C)C)C3)c2c(c1C#N)CN(c1cc(O)cc3ccccc13)CC2 [Ex 4, tert-butyl (1R,5S)-8-(4-cyano-6-(3-hydroxynaphthalen-1-yl)-3-(((S)-1-methylpyrrolidin-2-yl)methoxy)-5,6,7,8-tetrahydro-2,6-naphthyridin-1-yl)-3,8-diazabicyclo[3.2.1]octane-3-carboxylate] | – | – | 75 to 100% | 75 to 100% | –
8 | N#Cc1c(OCC23CCCN2C[C@H](F)C3)nc(N2CC3CCC(C2)N3)c2c1CN(Cc1ccccc1)CC2 (stereo partly drawn) [Ex 19, 6-benzyl-1-(3,8-diazabicyclo[3.2.1]octan-3-yl)-3-(((2R)-2-fluorotetrahydro-1H-pyrrolizin-7a(5H)-yl)methoxy)-5,6,7,8-tetrahydro-2,6-naphthyridine-4-carbonitrile Hydrochloride] | ≤ 25% | 75 to 100% | 25 to 50% | 50 to 75% | IC50 (human KRAS G12D protein): > 1 µM
9 | CN1CCC[C@H]1COc1nc(N2CC3CCC(C2)N3)c2c(c1C#N)CN(Cc1ccccc1)CC2 [Ex 18, 6-benzyl-1-(3,8-diazabicyclo[3.2.1]octan-3-yl)-3-(((S)-1-methylpyrrolidin-2-yl)methoxy)-5,6,7,8-tetrahydro-2,6-naphthyridine-4-carbonitrile Hydrochloride] | ≤ 25% | 25 to 50% | 25 to 50% | 75 to 100% | –
10 | CC(C)[C@@H](NC(=O)OC(C)(C)C)C(=O)N1CCN(c2nc(OC[C@@H]3CCCN3C)c(C#N)c3c2CCN(Cc2ccccc2)C3)CC1 [Ex 20, tert-butyl ((R)-1-(4-(6-benzyl-4-cyano-3-(((S)-1-methylpyrrolidin-2-yl)methoxy)-5,6,7,8-tetrahydro-2,6-naphthyridin-1-yl)piperazin-1-yl)-3-methyl-1-oxobutan-2-yl)carbamate] | ≤ 25% | 25 to 50% | – | – | –
11 | CN1CCC[C@H]1COc1nc(N2CCNC(CC#N)C2)c2c(c1C#N)CN(c1cccc3cccc(Cl)c13)CC2 (stereo partly drawn) [Ex 3, 6-(8-chloronaphthalen-1-yl)-1-(3-(cyanomethyl)piperazin-1-yl)-3-(((S)-1-methylpyrrolidin-2-yl)methoxy)-5,6,7,8-tetrahydro-2,6-naphthyridine-4-carbonitrile hydrochloride] | – | – | 25 to 50% | 75 to 100% | –
12 | C[C@@H](OCc1ccccc1)[C@H](N)C(=O)N1CCN(c2nc(OC[C@@H]3CCCN3C)c(C#N)c3c2CCN(Cc2ccccc2)C3)CC1 [Ex 23, 6-benzyl-1-(4-(O-benzyl-L-threonyl)piperazin-1-yl)-3-(((S)-1-methylpyrrolidin-2-yl)methoxy)-5,6,7,8-tetrahydro-2,6-naphthyridine-4-carbonitrile Hydrochloride] | ≤ 25% | 50 to 75% | – | – | –
13 | N#Cc1c(OCC23CCCN2CCC3)nc(N2[C@@H]3CC[C@H]2CNC3)c2c1CN(c1cccc3cccc(Br)c13)CC2 [Ex 7, 1-((1R,5S)-3,8-diazabicyclo[3.2.1]octan-8-yl)-6-(8-bromonaphthalen-1-yl)-3-((tetrahydro-1H-pyrrolizin-7a(5H)-yl)methoxy)-5,6,7,8-tetrahydro-2,6-naphthyridine-4-carbonitrile TFA salt] | 75 to 100% | 75 to 100% | – | – | –
14 | CN1CCC[C@H]1COc1nc(N2[C@@H]3CC[C@H]2CNC3)c2c(c1C#N)CN(c1cccc3cccc(Br)c13)CC2 [Ex 10, 1-((1R,5S)-3,8-diazabicyclo[3.2.1]octan-8-yl)-6-(8-bromonaphthalen-1-yl)-3-(((S)-1-methylpyrrolidin-2-yl)methoxy)-5,6,7,8-tetrahydro-2,6-naphthyridine-4-carbonitrile Hydrochloride] | 75 to 100% | 75 to 100% | – | – | –
15 | N#Cc1c(OCC2(CN3CCOCC3)CC2)nc(N2C[C@H]3CC[C@@H](C2)N3)c2c1CN(Cc1ccccc1)CC2 [Ex 24, 6-benzyl-1-((1R,5S)-3,8-diazabicyclo[3.2.1]octan-3-yl)-3-((1-(morpholinomethyl)cyclopropyl)methoxy)-5,6,7,8-tetrahydro-2,6-naphthyridine-4-carbonitrile Hydrochloride] | ≤ 25% | 25 to 50% | – | – | IC50 (human KRAS G12D protein): > 1 µM
16 | CN1CCC[C@H]1COc1nc(N2CC3CCC(C2)N3)c2c(c1C#N)CN(c1cc(O)cc3ccccc13)CC2 [Ex 1, 1-(3,8-diazabicyclo[3.2.1]octan-3-yl)-6-(3-hydroxynaphthalen-1-yl)-3-(((S)-1-methylpyrrolidin-2-yl)methoxy)-5,6,7,8-tetrahydro-2,6-naphthyridine-4-carbonitrile, hydrochloride] | – | – | 25 to 50% | 75 to 100% | –
17 | C[C@H]1CNCCN1c1nc(OCC2CCCN2C)c(C#N)c2c1CCN(Cc1ccccc1)C2 (stereo partly drawn) [Ex 75, 6-benzyl-1-((S)-2-methylpiperazin-1-yl)-3-((1-methylpyrrolidin-2-yl)methoxy)-5,6,7,8-tetrahydro-2,6-naphthyridine-4-carbonitrile hydrochloride] | ≤ 25% | ≤ 25% | ≤ 25% | ≤ 25% | –
18 | C#Cc1cccc2cccc(N3CCc4c(N5[C@@H]6CC[C@H]5CNC6)nc(OCC56CCCN5CCC6)c(C#N)c4C3)c12 [Ex 12, 1-((1R,5S)-3,8-diazabicyclo[3.2.1]octan-8-yl)-6-(8-ethynylnaphthalen-1-yl)-3-((tetrahydro-1H-pyrrolizin-7a(5H)-yl)methoxy)-5,6,7,8-tetrahydro-2,6-naphthyridine-4-carbonitrile Hydrochloride] | – | – | – | – | % Inhibition of Cell Proliferation HPAC TC1 (HPAC cells; Hydrochloride): C (C = >50 to ≤75)

From patent US20250051361A1, “5,6,7,8-TETRAHYDRO-2,6-NAPHTHYRIDINE DERIVATIVES AS CANCER THERAPEUTICS” (VRise Therapeutics, Inc., priority 2021, published 2025)
